Results as given in US9056887B2, “Minor groove binder phosphoramidites and methods of use” (Elitech Holding B.V., priority 2011, dated 2015).

Test: Solubility of MGB phosphoramidites in acetonitrile (oligonucleotide synthesis solvent)
Assay type: physicochemical
Details: standard solvent for on-line oligosynthesis
Description: Activated pentafluorophenyl ester 1 of the DPI3 type of minor groove bindinding ligands was prepared as previously described (U.S. Pat. No. 7,381,818) and coupled with four secondary amine-containing terminal functions generatin trimers 2(a-d), (Reaction Scheme 1, FIG. 1) suitable for following protection and phosphoramidite preparation. The use of secondary amino function prevents the possibility of the formation of acyclic side-product (Basel and Hassner 2000) during the following protection step. The trimers 2(a-d) were reacted with diethyl pyrocarbonate in the presence of DMAP to protect the three heteroaromatic indolamino groups and afford carbomates 3(a-d). Methyl and tert-butyl dicarbonates were also tested and produced the respective carbamates with good yields. […] Therefore, the ethylcarbamate protection was concluded to be optimal allowing fast deprotection and providing the required solubility in acetonitrile. […]
Test octathymidylates were synthesized on an ABI 3900 DNA synthesizer using thymidine-5′- or 3′-phosphoramidites and a DMT-O-hexylsuccinate solid support. […] Crude reaction mixtures were concentrated in a SpeedVac evaporator and analyzed by mass spectroscopy to confirm molecular weight and determine purity of crude MGB-oligonucleotide conjugates. […]

Which solubility in acetonitrile does the source give for `CCOC(=O)n1c(-c2ccc(OCCCCCCOP(OCCC#N)N(C(C)C)C(C)C)cc2)nc2cc(-c3nc4cc(-c5nc6cc(N7CCN(C)CC7)ccc6n5C(=O)OCC)ccc4n3C(=O)OCC)ccc21` (stereo not shown) [Phosphoramidite 25] here?
Its solubility in acetonitrile is “only sparingly soluble”.
